# Test results reported in the supplement of paper PMC13207355.
# How the values were obtained:
# Settings in all cases: exposure time: 72 h
# E34 [1] = patient-derived glioblastoma stem cells of proneural subtype; test: phenotypic distance (Euclidean, principal components) from DMSO controls (arbitrary units); higher = stronger morphological change
# E31 [2] = patient-derived glioblastoma stem cells of proneural subtype; test: as above
# FT3469 [3] = normal neural stem cell line; test: as above
# E28 [4] = patient-derived glioblastoma stem cells of classical subtype; test: as above
# E13 [5] = patient-derived glioblastoma stem cells of classical subtype; test: as above
# E57 [6] = patient-derived glioblastoma stem cells of mesenchymal subtype; test: as above
# E21 [7] = patient-derived glioblastoma stem cells of mesenchymal subtype; test: as above
# E34 [8] = test: surviving fraction (nuclei count normalised to DMSO); higher = more cells surviving (less toxic)
# E31 [9] = test: as above
# FT3469 [10] = test: as above
# E28 [11] = test: as above
# E13 [12] = test: as above
# E57 [13] = test: as above
# E21 [14] = test: as above
# 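Wherever phenotypic distance (Euclidean, principal components) from DMSO controls is given: cell Painting imaging in 384-well plates, CellProfiler features reduced to at least 20 principal components, Euclidean distance versus same-plate DMSO vehicle wells (0.1% v/v), median over six images per well.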
# 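Wherever surviving fraction (nuclei count normalised to DMSO) is given: nuclei counted by high-content imaging of Hoechst-stained cells in laminin-coated 384-well plates, relative to 0.1% DMSO vehicle wells, with staurosporine as cell-death control.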
compound,measurement,setting,value
C[C@@]12C(=O)OC(=O)[C@]1(C)[C@H]1CC[C@@H]2O1 [Cantharidin],phenotypic distance,E34 [1]; 4.1 nM,0.932
same,phenotypic distance,E34 [1]; 12.3 nM,0.828
same,phenotypic distance,E34 [1]; 37 nM,0.895
same,phenotypic distance,E34 [1]; 111.1 nM,2.91
same,phenotypic distance,E34 [1]; 333.3 nM,8.47
same,phenotypic distance,E34 [1]; 1000 nM,14.9
same,phenotypic distance,E34 [1]; 3000 nM,24.2
same,phenotypic distance,E31 [2]; 4.1 nM,1.14
same,phenotypic distance,E31 [2]; 12.3 nM,0.733
same,phenotypic distance,E31 [2]; 37 nM,1.22
same,phenotypic distance,E31 [2]; 111.1 nM,2.51
same,phenotypic distance,E31 [2]; 333.3 nM,10.8
same,phenotypic distance,E31 [2]; 1000 nM,17.7
same,phenotypic distance,E31 [2]; 3000 nM,15.6
same,phenotypic distance,FT3469 [3]; 4.1 nM,1.54
same,phenotypic distance,FT3469 [3]; 12.3 nM,0.532
same,phenotypic distance,FT3469 [3]; 37 nM,1.22
same,phenotypic distance,FT3469 [3]; 111.1 nM,1.87
same,phenotypic distance,FT3469 [3]; 333.3 nM,5.81
same,phenotypic distance,FT3469 [3]; 1000 nM,10.9
same,phenotypic distance,FT3469 [3]; 3000 nM,17.1
same,phenotypic distance,E28 [4]; 4.1 nM,0.669
same,phenotypic distance,E28 [4]; 12.3 nM,0.782
same,phenotypic distance,E28 [4]; 37 nM,1.16
same,phenotypic distance,E28 [4]; 111.1 nM,2.74
same,phenotypic distance,E28 [4]; 333.3 nM,6.99
same,phenotypic distance,E28 [4]; 1000 nM,10.5
same,phenotypic distance,E28 [4]; 3000 nM,17.9
same,phenotypic distance,E13 [5]; 4.1 nM,0.99
same,phenotypic distance,E13 [5]; 12.3 nM,0.872
same,phenotypic distance,E13 [5]; 37 nM,1.04
same,phenotypic distance,E13 [5]; 111.1 nM,2.26
same,phenotypic distance,E13 [5]; 333.3 nM,7.52
same,phenotypic distance,E13 [5]; 1000 nM,22.3
same,phenotypic distance,E13 [5]; 3000 nM,22.7
same,phenotypic distance,E57 [6]; 4.1 nM,4.16
same,phenotypic distance,E57 [6]; 12.3 nM,0.795
same,phenotypic distance,E57 [6]; 37 nM,0.509
same,phenotypic distance,E57 [6]; 111.1 nM,1.44
same,phenotypic distance,E57 [6]; 333.3 nM,7.24
same,phenotypic distance,E57 [6]; 1000 nM,9.13
same,phenotypic distance,E57 [6]; 3000 nM,24.7
same,phenotypic distance,E21 [7]; 4.1 nM,0.902
same,phenotypic distance,E21 [7]; 12.3 nM,0.679
same,phenotypic distance,E21 [7]; 37 nM,0.822
same,phenotypic distance,E21 [7]; 111.1 nM,2.07
same,phenotypic distance,E21 [7]; 333.3 nM,7.76
same,phenotypic distance,E21 [7]; 1000 nM,24.2
same,phenotypic distance,E21 [7]; 3000 nM,19.8
same,surviving fraction,E34 [8]; 4.1 nM,0.848
same,surviving fraction,E34 [8]; 12.3 nM,1.05
same,surviving fraction,E34 [8]; 37 nM,1.05
same,surviving fraction,E34 [8]; 111.1 nM,0.764
same,surviving fraction,E34 [8]; 333.3 nM,0.323
same,surviving fraction,E34 [8]; 1000 nM,0.0804
same,surviving fraction,E34 [8]; 3000 nM,0.0035
same,surviving fraction,E31 [9]; 4.1 nM,0.771
same,surviving fraction,E31 [9]; 12.3 nM,0.967
same,surviving fraction,E31 [9]; 37 nM,0.793
same,surviving fraction,E31 [9]; 111.1 nM,0.531
same,surviving fraction,E31 [9]; 333.3 nM,0.0179
same,surviving fraction,E31 [9]; 1000 nM,0
same,surviving fraction,E31 [9]; 3000 nM,0.00163
same,surviving fraction,FT3469 [10]; 4.1 nM,0.78
same,surviving fraction,FT3469 [10]; 12.3 nM,1.06
same,surviving fraction,FT3469 [10]; 37 nM,0.835
same,surviving fraction,FT3469 [10]; 111.1 nM,0.714
same,surviving fraction,FT3469 [10]; 333.3 nM,0.276
same,surviving fraction,FT3469 [10]; 1000 nM,0.0288
same,surviving fraction,FT3469 [10]; 3000 nM,0.00288
same,surviving fraction,E28 [11]; 4.1 nM,1.04
same,surviving fraction,E28 [11]; 12.3 nM,1.01
same,surviving fraction,E28 [11]; 37 nM,0.751
same,surviving fraction,E28 [11]; 111.1 nM,0.783
same,surviving fraction,E28 [11]; 333.3 nM,0.171
same,surviving fraction,E28 [11]; 1000 nM,0.0107
same,surviving fraction,E28 [11]; 3000 nM,0
same,surviving fraction,E13 [12]; 4.1 nM,0.826
same,surviving fraction,E13 [12]; 12.3 nM,0.96
same,surviving fraction,E13 [12]; 37 nM,0.919
same,surviving fraction,E13 [12]; 111.1 nM,0.735
same,surviving fraction,E13 [12]; 333.3 nM,0.139
same,surviving fraction,E13 [12]; 1000 nM,0.000925
same,surviving fraction,E13 [12]; 3000 nM,0
same,surviving fraction,E57 [13]; 4.1 nM,0.874
same,surviving fraction,E57 [13]; 12.3 nM,0.97
same,surviving fraction,E57 [13]; 37 nM,0.933
same,surviving fraction,E57 [13]; 111.1 nM,0.882
same,surviving fraction,E57 [13]; 333.3 nM,0.172
same,surviving fraction,E57 [13]; 1000 nM,0.00764
same,surviving fraction,E57 [13]; 3000 nM,0.00204
same,surviving fraction,E21 [14]; 4.1 nM,0.865
same,surviving fraction,E21 [14]; 12.3 nM,1.05
same,surviving fraction,E21 [14]; 37 nM,0.984
same,surviving fraction,E21 [14]; 111.1 nM,0.819
same,surviving fraction,E21 [14]; 333.3 nM,0.148
same,surviving fraction,E21 [14]; 1000 nM,0.00198
same,surviving fraction,E21 [14]; 3000 nM,0.00297
